This is an account of results in EPA's ToxValDB 9.5 (doi:10.2903/j.efsa.2010.1904).

The term NOAEL denotes the highest tested level that showed no adverse finding.

Series [1] has as its system Oncorhynchus mykiss. Particulars: chronic/long-term; duration: 21 days.
Series [2] has as its system Daphnia magna. To be noted: chronic/long-term; duration: 21 days.
Series [3] concerns Rattus norvegicus.
For series [4], the system named is Canidae. Particulars: chronic; duration: 52 weeks; oral; Dog Other.
Series [5] relates to Tagia sp.
Series [6] concerns Ictalurus punctatus. To be noted: acute; duration: 96 hours; mortality.
Series [7] concerns Apis mellifera. To be noted: acute; duration: 48 hours; oral; unspecified; mortality.
Series [8] has as its system Oryctolagus sp. To be noted: reproduction developmental; reproduction.
In series [9] the test system is Anas platyrhynchos. To be noted: oral, mortality.
Series [10] concerns Colinus virginianus.

Values after ≈ are worked out from the molar mass of the structure shown.

For `N#Cc1sc2c(=O)c3ccccc3c(=O)c=2sc1C#N` [Dithianon], the NOEC in series [1] is 0.00046 mg/L; in [2], 0.0595 mg/L; in series [5] (chronic/long-term, duration: 56 days, reproduction), 48 mg/kg; in series [10] (reproduction developmental, reproduction), 22.8 mg/kg-day. Further, the LD50 was under 500 mg/kg-day in series [3] (acute, oral, mortality); over 25.4 µg/piece in [7]; over 2000 mg/kg-day in [9] (acute, unspecified); 309 mg/kg-day in series [10] (acute, oral, mortality). Moreover, the NOAEL in series [3] (chronic, histopathology: neoplastic) worked out at 1 mg/kg-day; in series [3] (short-term, duration: 7 days, oral, histopathology: nonneoplastic), 12 mg/kg-day; in series [3] (short-term, duration: 28 days, oral, histopathology: nonneoplastic) it was 12 mg/kg-day; in series [4], 1.6 mg/kg-day; in [8] it was 25 mg/kg-day. The LC50 was 578 mg/kg in [5] (acute, duration: 14 days, mortality); 0.0143 µg/mL (≈ 0.0483 µM) in series [6]; over 790 mg/kg-day in [9] (short-term, feed); over 1200 mg/kg-day in [10] (acute, oral, diet, mortality).
